From patent US12286452B2, “Amphiphilic aminoglycoside connexin hemichannel inhibitors” (Texas Tech University System, priority 2018, dated 2025) come the findings set out here.

The target in experiment [1] is T1, human Cx26 HCs (Homo sapiens, UniProt P29033).
T1 construct: expressed in transfected cells; host or cells: E. coli LB2003 (carrying pREP4), transformed with pQE-Cx26, IPTG-induced
Kind of experiment: Cx26-dependent growth complementation assay in E. coli LB2003. Type of experiment: cell-based. The procedure: These derivatives were prepared by sequential benzylation and methylation followed by reduction of azido groups or hydrogenolysis of the Bn. […] Connexin HC inhibition was conducted using a bacteria-based assay of HC function^39. In this assay, Cx26 HCs are expressed in E. coli LB2003 cells, which lack three major K^+ uptake systems (Kdp, Kup and Trk), and as a result they cannot grow in low-[K^+] media^39-41. However, growth of this E. coli strain in low-[K^+] medium can be rescued by expression of K^+-permeable channels such as connexin HCs^39, 42-43. Under the conditions of the assay (LB2003 cells expressing HCs and grown in low-K^+ medium), inhibition of the HCs reduces or abolishes growth^39, 42-43. This is a simple assay where bacterial growth in multi-well plates can be followed by measuring the absorbance at 600 nm (OD600)^29.
LB2003 cells generously provided by Dr. E. P. Bakker (Osnabruk University, Osnabruk, Germany) were transformed with the plasmid pQE-Cx26 (human Cx26 into pQE60) and pREP4. […] LB2003 cells cannot grow in low-[K^+] media because of insufficient K^+ uptake for growth due to the knockout of three key K^+ transporters (Atrk, Akup, Akdp strain)^2-4. Details and validation of the growth complementation assay have been published recently^2. In brief, competent LB2003 containing the pREP4 plasmid were transformed with pQE-Cx26. These cells were grown overnight in Luria-Bertani medium (BD, Franklin Lakes, NJ, USA) supplemented with 100 mM KCl (to allow growth) and 0.4 mg/mL ampicillin, and then washed four times with NLM (see below), to remove residual K^+ from the Luria-Bertani medium. The washed cells were resuspended in complementation growth medium to an OD600 of 0.2. NLM contained 46 mM Na2HPO4, 23 mM NaH2PO4, 8 mM (NH4)2SO4, 0.4 mM MgSO4, 0.012 mM FeSO4, 1 mM sodium citrate, 44 mM glucose and 0.006 mM thiamine hydrochloride, pH 7.0. KLM had the same composition that NLM except for the equimolar replacement of Na^+ with K^+. For growth complementation we used NLM+4 mM KCl, and Cx26 expression was induced with 0.5 mM IPTG at the time of dilution to OD600=0.2. For the assay, the cells were seeded in 96-well plates and were incubated at 30° C., with shaking at 500 rpm. OD600 was measured after 18-h incubation in a plate reader. The initial OD600=0.2 was subtracted for growth calculations. Data are presented as means±SEM. Statistically significant differences were calculated by the Student t-test for unpaired data. Data were obtained from at least 3 independent experiments, with 3 repeats per experiment.

For experiment [2], the target named is T2, Cx43 HCs (Homo sapiens, UniProt P17302).
T2 construct: expressed in transfected cells
Kind of experiment: Cx43-dependent growth complementation assay in E. coli LB2003. The experiment is classed as cell-based. As to conditions: for Cx43/Cx26 Selectivity: IC50 Cx26/IC50 Cx43.

Setting [3] is: 4″,6″-disubstituted AKs, Table 5, read-out: Cx26 IC50.
The mark [4] stands for this setting: K46 members, the 20th table, read-out: IC50 (μM) against Cx26.
Setting [5] is: read-out: IC50, inhibition of Cx26 by kanamycin A and synthetic AGs, first Table 1.
[6] abbreviates: 4″,6″-disubstituted AKs, Table 5, read-out: Cx43 IC50.
Setting [7] is: K46 members, the 20th table, read-out: IC50 (μM) against Cx43.

Like-named read-outs stand apart in the source and are kept apart here.

T2 sequence (P17302 whole entry): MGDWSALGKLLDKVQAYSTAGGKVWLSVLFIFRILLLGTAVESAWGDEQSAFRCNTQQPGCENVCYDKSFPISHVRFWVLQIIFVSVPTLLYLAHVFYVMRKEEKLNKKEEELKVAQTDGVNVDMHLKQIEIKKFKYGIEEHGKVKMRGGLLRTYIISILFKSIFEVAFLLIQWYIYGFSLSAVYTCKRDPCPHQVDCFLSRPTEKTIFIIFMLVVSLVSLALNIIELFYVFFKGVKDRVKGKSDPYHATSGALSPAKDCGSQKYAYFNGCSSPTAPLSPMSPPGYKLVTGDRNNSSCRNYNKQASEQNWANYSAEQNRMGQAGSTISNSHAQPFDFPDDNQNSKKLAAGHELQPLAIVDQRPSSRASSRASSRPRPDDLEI

In general, IC50 refers to the concentration at which inhibition is half-maximal. `CCCCOCC1OC(OC2C(N)CC(N)C(OC3OC(CN)C(O)C(O)C3O)C2O)C(O)C(N)C1OCCCC` (centres unmarked) [Compound 2]: the results for the IC50 in experiment [1] (setting [3]), in experiment [1] (setting [4]) and in experiment [1] (setting [5]) were 19 ± 2 µM, 19 ± 2.8 µM and 19 ± 2.8 µM, respectively.

In the case of `CCCCCCOC[C@H]1O[C@H](O[C@@H]2[C@@H](O)[C@H](O[C@H]3O[C@H](CN)[C@@H](O)[C@H](O)[C@H]3O)[C@@H](N)C[C@H]2N)[C@H](O)[C@@H](N)[C@@H]1OCCCCCC` [Compound 3], the IC50 in experiment [1] (setting [3]), in experiment [1] (setting [4]) and in experiment [1] (setting [5]) was 6.2 ± 1.4 µM in each case.

Regarding `CCCCCCO[C@H]1[C@H](N)[C@@H](O)[C@@H](O[C@@H]2[C@@H](O)[C@H](O[C@H]3O[C@H](CN)[C@@H](O)[C@H](O)[C@H]3O)[C@@H](N)C[C@H]2N)O[C@@H]1CO` [Compound 4], half-maximal inhibition in experiment [1] (first Table 1) (IC50) required 13.5 ± 1.8 µM.

On to `CCCCCCCCOC[C@H]1OC(O[C@@H]2C(N)CC(N)C(O[C@H]3OC(CN)[C@@H](O)[C@H](O)C3O)[C@@H]2O)[C@H](O)[C@H](N)C1OCCCCCCCC` (some centres unmarked) [Compound 5], for which the IC50 worked out at 11.4 ± 4.3 µM in experiment [2] (setting [6]); 26.6 ± 7.8 µM in experiment [2] (setting [7]); 11.4 ± 4.3 µM in experiment [2] (the 13th table, read-out: Cx43 IC50); 13.6 ± 0.5 µM in experiment [1] (setting [3]); 13.6 ± 0.5 µM in experiment [1] (setting [4]); 13.6 ± 0.5 µM in experiment [1] (setting [5]). In addition, in experiment [1] (the 13th table, read-out: Cx26 IC50), the IC50 was 13.5 ± 0.5 µM. For the same compound, in experiment [2] (Table 5), the “Cx43/Cx26 Selectivity” value came to 1.19. In experiment [2] (the 13th table), the “Cx43 Imax” value amounted to 119 ± 8%. The “Cx26 Imax” value in experiment [1] (the 13th table) was determined as 94 ± 2%.

Turning to `CCCCCCCCCOC[C@H]1O[C@H](O[C@H]2[C@H](O)[C@@H](O[C@H]3O[C@H](CN)[C@@H](O)[C@H](O)[C@H]3O)[C@H](N)C[C@@H]2N)[C@H](O)[C@@H](N)[C@@H]1OCCCCCCCCC` [Compound 6], the IC50 in experiment [1] (setting [3]), in experiment [1] (setting [4]) and in experiment [1] (setting [5]) was 18.8 ± 1.3 µM in each case.

As to `COC1C(OC2C(N)CC(N)C(OC3OC(CN)C(OC)C(OC)C3OC)C2OC)OC(COCc2ccccc2)C(OCc2ccccc2)C1N` (centres unmarked) [Compound 8, 5, 2′, 3′, 4′, 2″-Penta-O-methyl-4″,6″-di-O-benzylkanamycin], the 50% inhibitory concentration (IC50) in experiment [1] (setting [4]) and in experiment [1] (setting [5]) was 8.4 ± 1.4 µM throughout.

Consider `COC1C(OC2C(N)CC(N)C(OC3OC(CN)C(OC)C(OC)C3OC)C2OC)OC(CO)C(O)C1N` (centres unmarked) [Compound 9, 5, 2′, 3′, 4′, 2″-Penta-O-methyl-kanamycin], for which the “inhibition of Cx26 HCs (in words)” value in experiment [1] is given as “lack of inhibitory activity”. Besides, the “IC50, inhibition of Cx26 by kanamycin A and synthetic AGs” value in experiment [1] (first Table 1) is reported as “No inhibition at 100 μM”.

As for `COc1ccc(COCC2OC(OC3C(N)CC(N)C(OC4OC(CN)C(O)C(O)C4O)C3O)C(O)C(N)C2OCc2ccc(OC)cc2)cc1` (centres unmarked) [Compound 10, 4″,6″-Di-O-(4-methoxybenzyl) kanamycin], the IC50 came out at 4.1 ± 1.5 µM in experiment [2] (setting [6]); 4.1 ± 1.5 µM in experiment [2] (setting [7]); 4.1 ± 1.5 µM in experiment [2] (the 12th table, Hill fit, mean ± SEM, some n = 1, read-out: Cx43 IC50); 13 ± 0.7 µM in experiment [1] (first Table 2, read-out: IC50, inhibition of Cx26 by synthetic AGs). Further, in experiment [2] (Table 5, listed as 2b), the “Cx43/Cx26 Selectivity” value was found to be 3.17.
